# Reference: US20240197722A1, “ANTICANCER COMPOSITION INDUCING CELL SENESCENCE AND CELL DEATH” (OSTEONEUROGEN INC., priority 2021, published 2024)
# Tests used:
# [1] = test system: A549 cells; test: Immunocytochemistry for cell senescence morphology in A549 cells; type: cell-based; conditions: for effect of inducing cancer cell-specific cell senescence: summary of chromone scaffold derivatives, FIG. 21; for cell flatness (morphological change of cell senescence): A549, 20 μM each, 72 hours, FIG. 1
# Procedure: The cells were incubated with Rhodamine Phalloidin (Thermo Fisher, Massachusetts, US) for 4 hours at room temperature. After washing, the cells were incubated with Alexa Fluor 488 (Abcam, Cambridge, UK)-conjugated secondary antibody. Images were analyzed by using EVOS M7000 (Invitrogen, CA, USA). Nuclei were counterstained with DAPI.
# [2] = test system: H358 cells; test: CCK-8 cell proliferation assay in H358 cells; type: cell-based; conditions: for inhibition of proliferation: H358, 30 μM or more, 72 hours
# Procedure: (§1) H358 cells were seeded in 96-well plates at a concentration of 3×10^4 cells/well for 24 hours.
# [3] = test system: A549 cells; test: TUNEL and 7AAD apoptosis analysis of A549 cells; type: cell-based
# Procedure: The TUNEL analysis was performed by using the TUNEL assay kit (Abcam, ab66110) according to the manufacturer's instructions. […] After 24 hours, the cells were harvested and fixed in cold 70% ethanol, and 50 μL of a DNA labeling solution (10 μL of TdT reaction buffer, […], 8 μL of Br-dUTP, 32.5 μL of ddH2O) was added thereto. After 1-hour incubation at 37° C., the cells were washed twice with 300 μL of rinse buffer, and an antibody solution (5 μL of Anti-BrdU-Red antibody, 95 μL rinse buffer) was prepared and added to the washed cells, and the cells were incubated in the dark at room temperature for 30 minutes. 300 μL of 7-AAD/RNase solution was added at last. Each sample was analyzed by using Accuri C6 Plus (BD Bioscience).
# [4] = test system: PC3; test: CCK-8 cell proliferation assay in PC3 cells; type: cell-based; conditions: Homo sapiens, PC-3; PC3, CCK-8, 72 hours
# [5] = test system: A549 cells; test: PI staining cell cycle analysis of A549 cells; type: cell-based; conditions: A549, 50 μM
# Procedure: After 24 hours, the cells were harvested and fixed in cooled 70% ethanol, and then stained with propidium iodide containing 200 ug/mL RNase (Abcam, 139418) in the dark at 37° C. for 30 minutes. Each phase of the cell cycle was identified by using Accuri C6 Plus (BD Bioscience).
# [6] = test system: A549 cells; test: Immunocytochemistry of p53, p21 and p16 in A549 cells; type: cell-based
# Procedure: A549 cell line was treated with 1, 5, 10 and 20 μM of the compound of the present invention (ONG41008), respectively, and after 24 or 72 hours, the cells were fixed by using 4% paraformaldehyde, permeabilized with 0.4% TritonX100 and blocked with 1% BSA. The cells were incubated with Anti-p53 (Cell Signaling Technology, Beverly, MA), Anti-p21 (Abcam, Cambridge, UK) and Anti-p16-INK4A (Proteintech, IL, USA) at room temperature for 4 hours. After washing, the cells were incubated with Alexa Fluor 488 (Abcam, Cambridge, UK)-conjugated secondary antibody. Images were analyzed by using EVOS M7000 (Invitrogen, CA, USA). Nuclei were counterstained with DAPI.
# [7] = test system: A549 cells; test: NAD+/NADH colorimetric assay in A549 cell lysates; type: cell-based
# Procedure: To this end, total NAD was extracted and quantified from A549 cell lysates by using the NAD+/NADH Colorimetric Assay Kit (Abcam, ab65348) according to the manufacturer's protocol. 1×10^6 cells were lysed in 400 μL NAD/NADH extraction buffer, filtered through a 10 kD spin column (ab93349) and measured in pure water or 1/5 dilution. Briefly, the amount of total NAD was calculated by dividing the standard curve (pmol) by the sample volume (μL) added to the reaction wells and multiplying by the dilution factor.
# [8] = test system: A549 cells; test: Western blot of cell cycle kinases in A549 cells; type: cell-based; conditions: A549, 50 μM, 24 hours
# [9] = test system: PC3 cells; test: Caspase-3/7 activity (apoptosis) in PC3 cells; type: cell-based, human; conditions: PC3, Caspase-3/7 activity; for PC3 apoptosis: various concentrations
# Procedure: Caspase-3/7 activity was measured by using a Caspase-3/7 assay kit (Promega, G8091). […] Afterwards, Caspase-3/7 activity was analyzed according to the manufacturer's protocol.
# [10] = test system: A549 cells; test: Cell changes of TGFβ-stimulated A549 cells; type: cell-based; conditions: TGFβ-stimulated A549, 10 μM
# [11] = test system: A549 cells; test: Intracellular ROS (H2DCFDA) in A549 cells; type: cell-based; conditions: A549, various concentrations, 24 hours
# Procedure: To this end, 1×10^4 cells/mL of A549 cells were dispensed in 96-well plates, and after 24 hours, the cells were treated with 10 μM H2DCFDA (Invitrogen, CA) and incubated at 37° C. in the dark for 1 hour. […] Intracellular ROS were examined by fluorescence microscopy (Thermo, MA) and quantified by fluorescence spectroscopy (Perkin Elmer, MA).
# [12] = test system: NHLF cells; test: Mitochondrial membrane potential (MTMP) analysis in NHLF; type: cell-based, human; conditions: for apoptosis in normal cells: measured with MTMP, Caspase3 and LDH, FIG. 20
# [13] = test system: A549 cells; test: Immunocytochemistry for cell senescence and multinucleation of A549 cells over time; type: cell-based; conditions: A549, 10 μM
# From the text: ZEB1, which is an epithelial-mesenchymal transition (EMT) positive regulator, was used as an expression control.
# [14] = test system: A549 cells; test: Mitochondrial membrane potential (TMRE) analysis in A549 cells
# [15] = test system: PC3 cells; test: Immunocytochemistry for multinucleation of PC3 cells; type: cell-based, human; conditions: PC3, treated by concentration
# [16] = test system: H1299 cells; test: Immunocytochemistry for multinucleation of H1299 cells; type: cell-based; conditions: H1299, treated by concentration
# [17] = test system: PANCI cells; test: Immunocytochemistry for multinucleation of PANC1 cells; type: cell-based, human; conditions: PANC1, treated by concentration
# [18] = test system: MCF7; test: CCK-8 cell proliferation assay in MCF7 cells; type: cell-based; conditions: Homo sapiens; MCF7, CCK-8, 72 hours
# [19] = test system: MCF7 cells; test: Immunocytochemistry for multinucleation of MCF7 cells; type: cell-based, human; conditions: MCF7, treated by concentration
# [20] = test system: PANC1; test: CCK-8 cell proliferation assay in PANC1 cells; type: cell-based, human; conditions: for IC50: Homo sapiens, PANC-1, PANC1, CCK-8, 72 hours
# [21] = test system: normal cells; test: Additional Caspase3/7 analysis in normal cells; type: cell-based, human; conditions: data not shown
# [22] = test system: Normal human lung fibroblasts (NHLF); test: CCK-8 cell proliferation assay in normal human lung fibroblasts; type: cell-based; conditions: CCK-8, FIG. 19
# [23] = test system: H358 cells; test: Microscopic observation of H358 cells; type: cell-based; conditions: H358, 10 μM, 72 hours
# Procedure: as §1
# [24] = test system: A549 cells; test: Western blot of p53, phospho-p53, p21 and p16 in A549 cells; type: cell-based
# Procedure: After 24 hours, the cell lysates were clarified by centrifugation at 14,000×g for 10 minutes, and the supernatant was collected. Protein concentration was quantified by Bradford assay (Thermo Fisher, Massachusetts, USA). Afterwards, 25 μg of cellular protein was loaded onto a 10% SDS-PAGE gel and transferred to a nitrocellulose membrane. After blocking with 5% BSA, the membrane was incubated overnight at 4° C. with Anti-p53 (Cell Signaling Technology, Beverly, MA), Anti-phosphor-p53 (Cell Signaling Technology, Beverly, MA), Anti-p21 (Abcam, Cambridge, UK), Anti-p16-INK4A (Proteintech, IL, USA) and Anti-GAPDH (Abcam, Cambridge, UK). After thorough washing, the membrane was incubated with HRP-conjugated secondary antibody. Protein bands were visualized by using ECL reagent (Abfrontier, Korea) and Uvitec HD9 (UVITEC, UK).
# [25] = test system: NHLF cells; test: LDH cytotoxicity assay in NHLF; type: cell-based; conditions: Homo sapiens, read-out: LDH: EC 50
# Procedure: (iii) LDH cytotoxicity assay detected LDH release by using an LDH assay kit (Abcam, ab56393). […] Absorbance values were measured at 450 nm in a microplate reader.
# [26] = test system: NHLF cells; test: Caspase-3 activity assay in NHLF; type: cell-based; conditions: Homo sapiens, read-out: Caspase3: EC 50
# Procedure: (ii) Caspase-3 activity assay was measured by using a Caspase-3 assay kit (Abcam, ab37401). […] Thereafter, protein was measured with BCA (Thermo, 23227), and the protein was adjusted to 50 μg per 50 μL of cell lysis buffer. Afterwards, Caspase-3 activity was analyzed according to the manufacturer's protocol.
# [27] = A549, mitochondrial membrane potential analysis
smiles,measurement,setting,value
O=c1cc(-c2ccc(O)cc2)oc2cc(O)cc(O)c12 [Apigenin],effect of inducing cancer cell-specific cell senescence,[1],does not induce
"COc1c(O)cc2oc(-c3ccc(O)cc3)cc(=O)c2c1O [Histidulin, Hispidulin]",effect of inducing cancer cell-specific cell senescence,[1],do not exert any effect
"COc1cc(-c2cc(=O)c3c(O)c(OC)c(O)cc3o2)ccc1O [Jaceocidin, Jaceosidin]",effect of inducing cancer cell-specific cell senescence,[1],do not exert any effect
"COc1ccc(-c2cc(=O)c3c(O)c(OC)c(O)cc3o2)cc1OC [ONG21001, Eupatilin]",cell flatness (morphological change of cell senescence),[1],specifically observed
COc1ccc(-c2cc(=O)c3c(O)c(OC)c(OCCN4CCNC(=O)C4)cc3o2)cc1OC [ONG41008],inhibition of proliferation,[2],inhibited the proliferation of non-small cell lung cancer cells to a similar level
same,difference between IC50 of paclitaxel and ONG41008,"[2]; H358, 72 hours, FIG. 9",14 fold
same,apoptosis,"[3]; A549, 48 hours of treatment",apoptosis was observed
same,apoptosis,"[3]; A549, 72 hours of treatment",clearly observed in a compound concentration-dependent manner
same,cell flatness (morphological change of cell senescence),[1],specifically observed
same,IC50,[4],32 µM
same,cell cycle arrest,[5],arrest of the G1-S-G2 phase
same,TP53 nuclear localization,"[6]; A549, 1 μM, 24 hours",nuclear localization was observed
same,TP53 protein expression level,"[6]; A549, 1 μM, 24 hours",not changed
same,p16 expression,"[6]; A549, 1, 5, 10 and 20 μM, 24 hours",up-regulated in proportion to the concentration
same,p21 expression and localization,"[6]; A549, 24 hours",nuclear localized with upregulation
same,NAD biosynthesis,[7]; A549,increased
same,NAD/NADH ratio (change),"[7]; A549, FIG. 7c",significantly increased
same,CDK2 expression,[8],inhibited
same,CDK6 expression,[8],inhibited
same,EC50,"[9]; Homo sapiens, PC-3",20.4 µM
same,PC3 apoptosis,[9],induced PC3 apoptosis in a concentration-dependent manner
same,day from which a significant portion of cells started to die,[10],6 days
same,day on which complete apoptosis was induced,[10],15 days
same,ROS,[11],increased in a concentration-dependent manner
same,apoptosis in normal cells,[12],did not induce significant apoptosis
same,time of treatment with the greatest number of multinucleation,[13],48 h
same,cell flattening,[13]; 24 hours,clearly confirmed
same,multinucleation,[13]; 24 hours,multinucleation was also observed
same,difference between IC50 of SAHA and ONG41008,"[14]; A549, FIG. 6",~20 fold
same,"day until which inhibitory effect increased, all cells removed",[14]; [27],4 days
same,time at which decrease of cell viability / inhibitory effect started,[14]; [27],48 h
same,multinucleation,[15],observed
same,multinucleation,[16],observed
same,multinucleation,[17],observed
same,IC50,[18],15.4 µM
same,multinucleation,[19],observed
same,IC50,[20],11.8 µM
same,inhibitory effect on proliferation compared to paclitaxel,"[20]; PANC1, 10 μM or more",more excellent inhibitory effect
same,caspase3/7 activity in normal cells,[21],did not induce caspase3/7 activity
same,cell proliferation of normal cells,[22],did not inhibit cell proliferation
same,mitotic disruption,[23],observed
same,p16 induction,"[24]; A549, 24 hours",induced in a concentration-dependent manner
same,p21 induction,"[24]; A549, 24 hours",induced in a concentration-dependent manner
same,total amount of TP53,"[24]; A549, 24 hours",maintained to be the same
same,TP53 phosphorylation,"[24]; A549, various concentrations, 24 hours",phosphorylated in proportion to the increase in the concentration
"O=C(CCCCCCC(=O)Nc1ccccc1)NO [SAHA, suberoylanilide hydroxamic acid]",PC3 apoptosis,[9],induced PC3 apoptosis in a concentration-dependent manner
same,apoptosis in normal cells,[12],induced strong apoptosis
same,cell proliferation of normal cells,[22],inhibited cell proliferation
COC(=O)c1ccc2c(c1)NC(=O)/C2=C(\Nc1ccc(N(C)C(=O)CN2CCN(C)CC2)cc1)c1ccccc1 [nintedanib],EC50,[25],218 µM
same,EC50,[26],128 µM
same,IC50,"[12]; Homo sapiens, read-out: MTMP: IC 50",41 µM
same,apoptosis in normal cells,[12],induced strong apoptosis
same,cell proliferation of normal cells,[22],inhibited cell proliferation
"CC(=O)O[C@H]1C(=O)[C@@]2(C)[C@H]([C@H](OC(=O)c3ccccc3)[C@]3(O)C[C@H](OC(=O)[C@H](O)[C@@H](NC(=O)c4ccccc4)c4ccccc4)C(C)=C1C3(C)C)[C@]1(OC(C)=O)CO[C@@H]1C[C@@H]2O [paclitaxel, reference compound]",inhibition of proliferation,[2],inhibited the proliferation of non-small cell lung cancer cells to a similar level
same,IC50,[20],84.7 µM
